Test results: the NIST ThermoML archive (doi:10.1016/j.jct.2016.07.008)

Assay: xn = mol fraction of the nth substance listed
Conditions: Liquid, Vibrating wire viscometry, x1 = 1

CCCCO [butan-1-ol] + CC(C)CC(C)(C)C
viscosity [mPa·s]
Conditions	293.15 K	298.15 K	313.15 K	323.15 K	333.15 K	348.15 K	353.15 K
100 kPa	2.969	2.601	1.797	1.429	1.156	0.8579	0.7903
1000 kPa	3.001	2.622	1.813	1.44	1.172	0.8647	0.7943
5000 kPa	3.108	2.715	1.89	1.491	1.227	0.8956	0.8284
10000 kPa	3.244	2.834	1.967	1.556	1.29	0.9349	0.8637
20000 kPa	3.479	3.079	2.14	1.69	1.389	1.016	0.9473
30000 kPa	3.788	3.333	2.319	1.829	1.504	1.101	1.04
40000 kPa	4.078	3.599	2.48	1.975	1.624	1.189	1.102
50000 kPa	4.401	3.874	2.629	2.125	1.741	1.28	1.21
60000 kPa	4.74	4.16	2.852	2.281	1.867	1.375	1.295
70000 kPa	5.076	4.455	3.089	2.443	2.014	1.473	1.384
80000 kPa	5.438	4.761	3.247	2.61	2.137	1.575	1.473
100000 kPa	6.164	5.404	3.686	2.962	2.384	1.788	1.676
120000 kPa	6.979	6.087	4.192	3.335	2.633	2.015	1.857
140000 kPa	7.843	6.811	4.638	3.682	2.883	2.255	2.037
